According to BindingDB's records for patent US11858959 (Ardelyx, 2024):

Molecular target: T1, 11-beta-hydroxysteroid dehydrogenase type 2 (Homo sapiens, UniProt P80365)
T1 sequence (P80365 whole entry): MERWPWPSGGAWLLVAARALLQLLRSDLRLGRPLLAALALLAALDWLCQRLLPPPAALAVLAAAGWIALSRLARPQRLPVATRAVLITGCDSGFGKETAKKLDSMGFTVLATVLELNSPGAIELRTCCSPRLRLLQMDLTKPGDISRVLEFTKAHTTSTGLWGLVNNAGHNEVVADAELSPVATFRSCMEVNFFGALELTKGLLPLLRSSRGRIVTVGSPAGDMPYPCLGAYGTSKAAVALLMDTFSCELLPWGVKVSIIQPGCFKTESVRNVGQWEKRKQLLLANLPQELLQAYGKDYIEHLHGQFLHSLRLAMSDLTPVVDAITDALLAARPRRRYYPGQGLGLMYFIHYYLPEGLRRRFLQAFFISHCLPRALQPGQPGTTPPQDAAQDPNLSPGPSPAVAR
Experiment: HSD2 Activity
Procedure: Human descending colon epithelial stem cells were cultured as 3D organoids in accordance with Sato et al Gastroenterology. 2011 November; 141(5): 1762-72. Organoids were dissociated using TrypLE Express (life technologies) and plated on 96-well transwells (corning) in supplemented basal media (SBM-advanced DMEM/F12 containing 10 mM HEPES, 1:100 Glutamax, 1:100 penicillin/streptomycin, 1:100N2, 1:50 B27, 1 mM N-acetylcysteine, 10 nM [Leu15]-gastrin I) containing 100 ng/mL Wnt3A (W), 50 ng/mL EGF (E), 100 ng/mL Noggin (N), 500 ng/mL RSpondinl (R), 500 nM A83-01 (S) and 2.5 uM thiazovivin (T). Cultures were differentiated using SBM containing ENRA and 30 nM aldosterone on day 3, and cultures were used for assay on day 6 or 7. Compounds were diluted in DMSO and serial dilutions prepared by titrating in DMSO. Compounds were then diluted into DMEM/F12. Transwell plates containing descending colon cultures were washed twice with DMEM/F12 and compound was added to the apical compartment. Cells were incubated with test compound for 30 minutes at 37 C., 5% CO2 to equilibrate across the cell membrane. […] Cortisol levels were measured using a cortisol HTRF assay kit as described by the manufacturer (Cisbio). Concentration-response curves were then plotted and IC50 (and pIC50) values were determined using least squares non-linear regression.

Cc1oc(=O)oc1COC(=O)[C@]1(C)[C@@H](OC(=O)CN(C)C)CC[C@@]2(C)[C@H]1CC[C@]1(C)[C@@H]2C(=O)C=C2[C@@H]3C[C@@](C)(C(=O)O)CC[C@]3(C)CC[C@]21C [US11858959, Compound 290-2]
IC50: 251 nM
